Earlier results in patent US5173304A, “Agents for the treatment of severe pain and preparation of said agents” (Dolorgiet Beteiligungs GmbH, priority 1989, dated 1992).

Conditions: in vivo

CC(C)Cc1ccc(C(C)C(=O)O)cc1 (centres unmarked) [ibuprofen]
Analgesic effectiveness: effective analgesic
Tolerability: well tolerated
